{
  "source": "patent EP3381906A1",
  "about": "“COMPOUNDS FOR USE AS HEPARANASE INHIBITORS” (Leadiant Biosciences SA, priority 2017, dated 2018)",
  "key": {"[1]": {"biological_target": "T1, heparanase (Homo sapiens, UniProt Q9Y251)", "T1 construct": "100 µM fondaparinux, 2.5 nM heparanase and serial dilutions of test compounds", "T1 sequence (Q9Y251 158-543 limits assumed)": "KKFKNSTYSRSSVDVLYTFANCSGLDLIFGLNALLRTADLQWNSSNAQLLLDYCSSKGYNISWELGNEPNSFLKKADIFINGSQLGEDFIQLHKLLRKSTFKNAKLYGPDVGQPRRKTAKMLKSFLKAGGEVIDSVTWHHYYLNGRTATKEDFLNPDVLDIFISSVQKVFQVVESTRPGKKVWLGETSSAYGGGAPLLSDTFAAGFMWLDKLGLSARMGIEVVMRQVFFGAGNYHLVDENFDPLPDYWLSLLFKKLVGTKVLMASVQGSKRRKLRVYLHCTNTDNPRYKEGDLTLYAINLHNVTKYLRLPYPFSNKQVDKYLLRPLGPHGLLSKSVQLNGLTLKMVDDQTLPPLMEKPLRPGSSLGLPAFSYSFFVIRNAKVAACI", "T1 sequence (Q9Y251 36-109 limits assumed)": "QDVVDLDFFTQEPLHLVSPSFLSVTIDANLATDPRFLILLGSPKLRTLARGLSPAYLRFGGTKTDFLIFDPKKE", "test": "AGA*IA assay: heparanase-catalyzed fondaparinux cleavage, colorimetric (WST-1)", "format": "biochemical", "conditions": "2.5 nM heparanase, 100 µM fondaparinux, pH 5.0, 3 h at 37°C; class symbols; read-out: AGAIA assay (IC50)", "method": "All compounds were tested in a simple, accurate and robust microplate assay based on the cleavage of the synthetic heparin fragment, the pentasaccharide Fondaparinux (AGA*IA). This assay was originally developed by Hammond and coworkers [Hammond E, Li CP, Ferro V. Development of a colorimetric assay for heparanase activity suitable for kinetic analysis and inhibitor screening. […] Fondaparinux is cleaved by heparanase to generate a reducing disaccharide, which can be quantitatively measured via a colorimetric or a fluorescence assay, the last by the fluorescent sensor polymer-H [Schiemann S, Lühn S, Alban S. Development of both colorimetric and fluorescence heparinase activity assays using fondaparinux as substrate.\nThe assay measures the appearance of the disaccharide product of heparanase-catalyzed fondaparinux cleavage colorimetrically using the tetrazolium salt WST-1. Assay was essentially performed as described with minor modifications. Briefly, NUNC ELISA 96-well plates were pre-treated with a solution of 4% BSA (bovin serum albumin) in phosphate-buffered saline containing 0.05% Tween 20 (PBST), for 2 h at 37°C, then washed three times with PBST, dried by tapping on paper towel and stored at -20°C. Before use, once again, the plates were washed with PBST.\nThen, the absorbance at 560 nm was measured through a microplate reader (Victor 3, Perkin Elmer).\nFinally, the measurements were corrected by subtracting both the reagent background and the inner absorbance value of test compound."}, "[2]": {"tested_on": "U87MG", "test": "Matrigel cell invasion assay", "format": "cell-based, human", "conditions": "Homo sapiens, U-87 MG, Conc. 10 µM"}, "[3]": {"tested_on": "U2OS", "test": "Matrigel cell invasion assay", "format": "cell-based, human", "design": "key to Invasion Assay Inhibition (%) U2OS: +++: > 90%; ++: 50-90 %; +: < 50%; -: Not active", "conditions": "Conc. 10 µM"}, "[4]": {"tested_on": "HT1080 (human fibrosarcoma)", "test": "Cell adhesion assay on matrigel coated wells", "format": "cell-based", "conditions": "HT1080, Conc. 10 µM; percent of adhesion with respect to the control (100%)", "method": "Cell surface, non-integrin molecules such as heparan sulfate proteoglycans (HSPGs) may be involved in the regulation of early adhesive stages of cell-ECM interactions. A cell adhesion assay has been employed to determine if the newly designed heparanase inhibitors were able to interfere with adhesion properties of cancer cells.\nHT1080 (human fibrosarcoma) cells were treated for 18-20 h with test compounds in complete medium supplemented with 10% FCS. Then cells were collected, washed in complete medium, and added to matrigel coated wells in triplicate, at previously identified optimal seeding density, and incubated at 37 °C in complete medium for times ranging from 15 minutes to 4h, according to the cell line. After incubation, the wells were washed three times with serum-free medium and the remaining firmly attached cells were stained with crystal-violet 0.1%. Optical density was measured at 560 nm by Victor 3 (Perkin-Elmer) plate analyzer. Each experiment was repeated three times."}, "[5]": {"tested_on": "U87MG", "test": "Cell adhesion assay on matrigel coated wells", "format": "cell-based, human", "conditions": "Conc. 10 µM, percent of adhesion with respect to the control (100%)"}, "[6]": {"tested_on": "FGF-1", "test": "Real-Time Quantitative PCR of pro-angiogenic genes in HT1080 cells", "format": "cell-based, human", "conditions": "24 h, Conc 10.0 uM", "method": "(§1) To evaluate the effect of heparanase inhibitors on the tumor transcription of genes encoding for proangiogenic factors, such as FGF1/2, VEGF, MMP-9, HSPE-1, the relative mRNA levels were analyzed by quantitative Real-Time Quantitative PCR. To perform the assay, HT1080 (human fibrosarcoma) cells were cultured in complete medium containing 10%FCS (fetal calf serum). Cells were plated in 24-well plates and treated at fixed concentration (i.e., highest non-toxic concentration) of test compounds. After 24 h, cells were detached, collected and total RNA extracted by RNeasy Mini Kit (QIAGEN). Following reverse transcription step, FGF1/2, VEGF, MMP-9, HSPE-1 mRNA levels, were quantified by qPCR using the advanced Universal SYBR Green Supermix (Bio Rad) and ABI PRISM 7900HT Thermal Cycler System (Perkin Elmer), according to the manufacturer's instructions. Appropriate no-RT and non-template controls were included in each 96-well PCR reaction, and dissociation analysis was performed at the end of each run to confirm the specificity of the reaction. Relative levels of RNA were calculated using the ddCt method. Standard curve and sample data were run in duplicate. In the Table a mean value is reported."}, "[7]": {"tested_on": "FGF-2", "test": "Real-Time Quantitative PCR of pro-angiogenic genes in HT1080 cells", "format": "cell-based, human", "conditions": "24 h, Conc 10.0 uM", "method": "as §1"}, "[8]": {"tested_on": "MMP-9", "test": "Real-Time Quantitative PCR of pro-angiogenic genes in HT1080 cells", "format": "cell-based, human", "conditions": "24 h, Conc 10.0 uM", "method": "as §1"}, "[9]": {"tested_on": "VEGF", "test": "Real-Time Quantitative PCR of pro-angiogenic genes in HT1080 cells", "format": "cell-based, human", "conditions": "24 h, Conc 10.0 uM", "method": "as §1"}, "[10]": {"tested_on": "HPSE-1", "test": "Real-Time Quantitative PCR of pro-angiogenic genes in HT1080 cells", "format": "cell-based, human", "conditions": "24 h, Conc 10.0 uM", "experimental": "To evaluate the effect of heparanase inhibitors on the tumor transcription of genes encoding for proangiogenic factors, such as FGF1/2, VEGF, MMP-9, HSPE-1, the relative mRNA levels were analyzed by quantitative Real-Time Quantitative PCR. To perform the assay, HT1080 (human fibrosarcoma) cells were cultured in complete medium containing 10%FCS (fetal calf serum). Cells were plated in 24-well plates and treated at fixed concentration (i.e., highest non-toxic concentration) of test compounds. After 24 h, cells were detached, collected and total RNA extracted by RNeasy Mini Kit (QIAGEN). Following reverse transcription step, FGF1/2, VEGF, MMP-9, HSPE-1 mRNA levels, were quantified by qPCR using the advanced Universal SYBR Green Supermix (Bio Rad) and ABI PRISM 7900HT Thermal Cycler System (Perkin Elmer), according to the manufacturer's instructions. […] Relative levels of RNA were calculated using the ddCt method. Standard curve and sample data were run in duplicate."}},
  "data": [
    {"smiles": "COc1cc(N=Nc2cc(S(=O)(=O)O)cc3cc(S(=O)(=O)O)cc(O)c23)c(C)cc1NC(=O)Nc1cc(C)c(N=Nc2cc(S(=O)(=O)O)cc3cc(S(=O)(=O)O)cc(O)c23)cc1OC", "note": "[SST0597]", "values": [
      {"measurement": "IC50", "setting": "[1]", "result": "50 to 490", "unit": "nM"},
      {"measurement": "inhibition at 10 µM", "setting": "[2]", "result": "< 50", "unit": "%"},
      {"measurement": "Invasion Assay Inhibition (%) U2OS", "setting": "[3]", "result": "-"},
      {"measurement": "Adhesion Assay (%) HT1080", "setting": "[4]", "result": "∼ 85%"},
      {"measurement": "Adhesion Assay (%) U87MG", "setting": "[5]", "result": "∼ 23%"},
      {"measurement": "Gene Expression (% mRNA vs. control) FGF-1", "setting": "[6]", "result": "∼ 100%"},
      {"measurement": "Gene Expression (% mRNA vs. control) FGF-2", "setting": "[7]", "result": "∼ 82%"},
      {"measurement": "Gene Expression (% mRNA vs. control) MMP-9", "setting": "[8]", "result": "∼ 69%"},
      {"measurement": "Gene Expression (% mRNA vs. control) VEGF", "setting": "[9]", "result": "∼ 100%"},
      {"measurement": "Gene Expression (% mRNA vs. control) HPSE-1", "setting": "[10]", "result": "∼ 100%"}
    ]}
  ]
}
